Where “and” joins values, the source holds several entries; their conditions need not be identical. Identical values can stand only once.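 Exposure lasted 48 hours, with cells grown in 96-well plates and compounds tested at five concentrations. The concentration for 50% growth inhibition is given as GI50. TGI is the concentration that stops growth completely.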
Legend:
Test in all cases: NCI anticancer screen, dose series, 48 h
UO-31 renal = tested on: UO-31 renal
NCI-H226 lung = tested on: NCI-H226 lung
ACHN renal = tested on: ACHN renal
SK-MEL-5 melanoma = tested on: SK-MEL-5 melanoma
SK-OV-3 ovarian = tested on: SK-OV-3 ovarian
CAKI-1 renal = tested on: CAKI-1 renal
COLO 205 colon = tested on: COLO 205 colon
UACC-62 melanoma = tested on: UACC-62 melanoma
MOLT-4 leukemia = tested on: MOLT-4 leukemia
LOX IMVI melanoma = tested on: LOX IMVI melanoma

| SMILES | GI50 (UO-31 renal) | TGI (UO-31 renal) | GI50 (NCI-H226 lung) | TGI (NCI-H226 lung) | GI50 (ACHN renal) | TGI (ACHN renal) | GI50 (SK-MEL-5 melanoma) | TGI (SK-MEL-5 melanoma) | GI50 (SK-OV-3 ovarian) | TGI (SK-OV-3 ovarian) | GI50 (CAKI-1 renal) | TGI (CAKI-1 renal) | GI50 (COLO 205 colon) | TGI (COLO 205 colon) | GI50 (UACC-62 melanoma) | TGI (UACC-62 melanoma) | GI50 (MOLT-4 leukemia) | TGI (MOLT-4 leukemia) | GI50 (LOX IMVI melanoma) | TGI (LOX IMVI melanoma) |
| --- | --- | --- | --- | --- | --- | --- | --- | --- | --- | --- | --- | --- | --- | --- | --- | --- | --- | --- | --- | --- |
| CNCc1cccc2c1OCCOCCOCCN(C)S(=O)(=O)c1ccc(cc1)-c1cnc(N)c(n1)C(=O)N2 | 1.21 µM | 2.91 µM | 2.76 µM | 6.92 µM | 0.468 µM | 2.21 µM | 1.35 µM | 2.91 µM | 0.389 µM | 12.8 µM | 0.98 µM | 17.9 µM | 0.775 µM | 3.23 µM | 1.3 µM | 2.87 µM | 0.41 µM | 11.8 µM | 1.05 µM | 3.23 µM |
| COc1ccc2c(c1)C(=O)c1c-2c(Nc2ccccc2OC)nc2ccccc12 | > 100 µM | > 100 µM | > 100 µM | > 100 µM | 89.2 µM | > 100 µM | > 100 µM | > 100 µM | > 100 µM | > 100 µM | > 100 µM | > 100 µM | > 100 µM | > 100 µM | > 100 µM | > 100 µM | > 100 µM | > 100 µM | > 100 µM | > 100 µM |
| CC1=C(C(=O)Nc2ccccc2)C(c2ccc(N(C)C)cc2)C(C(=O)Nc2ccccc2)=C(C)N1 |  | 65.4 µM |  | > 100 µM |  | > 73.6 µM |  | 7.98 µM |  | > 100 µM |  | > 100 µM |  | 17.3 µM |  | 23.9 µM |  | > 96.6 µM |  | > 100 µM |
| N#C/C(=C\c1cc(OCc2ccccc2)c(OCc2ccccc2)cn1)C(N)=O |  | > 100 µM |  | > 100 µM |  | > 100 µM |  | > 100 µM |  | > 100 µM |  | > 100 µM |  | > 100 µM |  | > 100 µM |  | 52.4 µM |  | > 100 µM |
| CCCCCCN(CCCCCC)C(=S)N/N=C(\C)c1ccccn1 |  | 3.07 µM |  | 2.27 µM |  | 2.17 µM |  | 2.57 µM |  | 2.77 µM |  | 2.68 µM |  | 2.14 µM |  | 3.5 µM |  | 5.79 µM |  | 2.59 µM |
| COc1ccc(C(=O)c2cc(OC)c(OC)c(OC)c2OC)cc1O | 5.02 µM | > 100 µM | 20.5 µM | > 100 µM | 8.94 µM | > 100 µM | 2.93 µM | > 100 µM | 3.33 µM | 90.1 µM | 2.21 µM | 6.28 µM | 8.27 µM | 34.3 µM | 4.3 µM | > 100 µM | 4.56 µM | > 100 µM | 4.95 µM | > 100 µM |
| N#CC1c2ccccc2C=CN1C(=O)CCCl (configuration not stated) | 2.32 µM | 7.2 µM | 17.6 µM | 54.9 µM | 1.73 µM | 3.22 µM | 16.6 µM | 30.6 µM | 17.2 µM | 31.3 µM | 8.38 µM | 22.7 µM | 2.48 µM | 5.65 µM | 14.9 µM | 29.7 µM | 7.88 µM | 51.2 µM | 3.94 µM | 13.4 µM |
| O=C1c2cccc(Oc3ccccc3)c2C(=O)c2cccc(Oc3ccccc3)c21 | > 100 µM | > 100 µM | > 100 µM | > 100 µM | > 100 µM | > 100 µM | > 100 µM | > 100 µM | 9.39 µM | > 100 µM | > 100 µM | > 100 µM | > 100 µM | > 100 µM | > 100 µM | > 100 µM | > 100 µM | > 100 µM | > 100 µM | > 100 µM |
| O=C1[C@@H]2C(c3c(Cl)cccc3Cl)=NO[C@@H]2C(=O)N1c1ccc(Cc2ccc(N3C(=O)[C@H]4C(c5c(Cl)cccc5Cl)=NO[C@H]4C3=O)cc2)cc1 |  | > 100 µM |  | > 100 µM |  | > 100 µM |  | > 100 µM |  | > 100 µM |  | > 100 µM |  | > 100 µM |  | > 100 µM |  | > 100 µM |  | > 100 µM |
| Cc1cccc(NC(=O)c2sc3nc4c(cc3c2N)C(=O)CCC4)c1 | 13.9 µM | 51.2 µM | 5.8 µM | > 100 µM | 1.48 µM | > 58.5 µM | 0.115 µM | > 57.4 µM | 0.317 µM | > 100 µM | 0.368 µM | > 100 µM | 0.231 µM |  | 0.49 µM | > 89.1 µM | 25 µM | > 100 µM | 1 µM | > 70 µM |
| CC(=O)O[C@H]1C(=O)[C@@]2(C)C([C@H](OC(=O)c3ccccc3)[C@]3(O)C[C@H](OC(=O)[C@H](O)[C@@H](NC(=O)c4ccccc4)c4ccccc4)C(C)=C1C3(C)C)[C@]1(OC(C)=O)CO[C@@H]1C[C@@H]2O (some centres not stated) | 1.41 µM | > 50 µM | 0.0189 µM | > 50 µM | 0.945 µM | > 50 µM | 0.00785 µM | > 50 µM |  | > 50 µM |  | > 50 µM | < 0.005 µM | 0.0246 µM | 0.0207 µM | > 50 µM | 0.0152 µM | > 37.2 µM | 0.00513 µM | > 50 µM |
| O=C1CC(c2ccccc2)Oc2ccccc21 (configuration not stated) |  | > 100 µM |  | > 100 µM |  | > 100 µM |  | 65.8 µM |  | > 100 µM |  | > 100 µM |  | > 100 µM |  | > 100 µM |  | 34.4 µM |  | 84.3 µM |
| CC(C)(CO)CNC(=O)c1ccc2[nH]c(O)c(N=Nc3ccc(S(N)(=O)=O)cc3)c2c1 | > 25 µM | > 25 µM | > 25 µM | > 25 µM | > 25 µM | > 25 µM | > 25 µM | > 25 µM | > 25 µM | > 25 µM | > 25 µM | > 25 µM | > 25 µM | > 25 µM | > 25 µM | > 25 µM | > 25 µM | > 25 µM | > 25 µM | > 25 µM |
| Cc1nn(-c2ccc(Cl)cc2)c2ncnc(N/N=C/c3ccccc3O)c12 | 0.331 µM and 0.251 µM | 3.01 µM and 3.35 µM | 3.86 µM and 2.55 µM | 40.7 µM and > 29.5 µM | 0.362 µM and 0.322 µM | 12 µM and 10.5 µM | 0.728 µM and 0.509 µM | 2.45 µM and 1.47 µM | 0.615 µM and 0.427 µM | 26.5 µM and 10.8 µM | 0.331 µM and 0.625 µM | 3.03 µM and 8.82 µM | 0.776 µM and 0.398 µM | > 46.2 µM and 27.6 µM | 1.6 µM and 0.91 µM | 19.9 µM and 6.95 µM | 0.518 µM and 0.326 µM | > 100 µM | 0.389 µM and 0.251 µM | 11.9 µM and 10.2 µM |

From PubChem BioAssay (NCI)
